Results reported in patent US4476299A, “Cyclic polyamino containing compounds having therapeutic effect and the preparation thereof” (priority 1981, dated 1984).
Like-named read-outs stand apart in the source and are kept apart here.

Experiments:
P-388 cells = assay: Antineoplastic action against implanted P-388 tumor, CDF1 mice, i.p.-i.p. (T/C %); format: in vivo; conditions: Mus musculus, read-out: T/C %, (Treatment/Control %)
Method: (§1) In this animal test, the antineoplastic action against the implanted tumor was examined, in lower animals in vivo, in repsect to the compounds according to the present invention, by using CDF1 mice.
To the peritoneal cavity of each group of mice consisting of six CDF1 mice per group, 10^6 /0.1 ml of P-388 cells or 10^5 /0.1 ml of L-1210 cells were implanted. […] While to the control groups of CDF1 mice, P-388 and L-1210 cells were implanted in the same manner and they were bred without administration of the compounds. […]

B-16 melanoma = assay: Antineoplastic action against B-16 melanoma, i.p.-i.p. (T/C %); format: in vivo, mice; conditions: in words
Source text: as §1
(§2) As the screening test for confirming antineoplasticity of certain compound, it is known in the art that there are two kinds of tests, one being "in vitro" test wherein carcinoma cells in propagation in a test tube are used, the other being "in vivo" test wherein lower animals implanted with carcinoma cells are used. In Japan. the "in vivo" test is usually carried out by using Ehrlich tumor, L-1210 cells, sarcoma 180 cells, Yoshida sarcoma or ascites-liver tumor as ascitic tumor and immobilized carcinoma mentioned above as fixed carcinoma. Recently, a new method for confirming the antineoplasticity has been developed, in which lymphocytic leukemia cells P-388 are used. It is known that P-388 has more strong sensitivity than L-1210. As fixed carcinoma, there may be mentioned, for example Lewis lung cancer B-16 melanoma, MM2, MOPC 104E, Colon 26, MH 134, C-1498 and the like.
(§3) The new compounds of the present invention were confirmed to be effective to the P-388 cells in the light of the screening test's results hereinbefore described.

MM2 = assay: Antineoplastic action against MM2 tumor, i.p.-i.p. (T/C %); format: in vivo, mice; conditions: in words
Source text: as §1, §2, §3

[1] = ip, Table 6, P388, dose 0.05 mg/kg, i.p.
[2] = ip, Table 6, P388, dose 0.5 mg/kg, i.p.
[3] = ip, Table 6, P388, dose 2 mg/kg, i.p.

| Structure (SMILES) | response vs control in vivo at 0.05 mg/kg (P-388 cells; P388, ip) [%] | response vs control in vivo at 0.5 mg/kg (P-388 cells; P388, ip) [%] | response vs control in vivo at 2 mg/kg (P-388 cells; P388, ip) [%] | response vs control in vivo at 10 mg/kg (P-388 cells; P388, ip) [%] | also measured |
| --- | --- | --- | --- | --- | --- |
| CCOc1ccc2cc1Oc1ccc(cc1)CC1C(=O)N(C)C(C2)C(=O)NC(C)C(=O)NC(C)C(=O)N(C)C(Cc2ccc(OC)cc2)C(=O)NC(C)C(=O)N1C (centres unmarked) [Ex. 3] | 137 | 165 | 162 | – | – |
| COc1ccc(CC2C(=O)NC(C)C(=O)N(C)C3Cc4ccc(cc4)Oc4cc(ccc4OC(C)C)CC(C(=O)NC(C)C(=O)NC(C)C(=O)N2C)N(C)C3=O)cc1 (centres unmarked) [Ex. 5] | 142 | 175 | 105 | – | – |
| CCCCCOc1ccc2cc1Oc1ccc(cc1)CC1C(=O)N(C)C(C2)C(=O)NC(C)C(=O)NC(C)C(=O)N(C)C(Cc2ccc(OC)cc2)C(=O)NC(C)C(=O)N1C (centres unmarked) [Ex. 7] | 122 | 143 | 165 | – | – |
| CCCCCCCOc1ccc2cc1Oc1ccc(cc1)CC1C(=O)N(C)C(C2)C(=O)NC(C)C(=O)NC(C)C(=O)N(C)C(Cc2ccc(OC)cc2)C(=O)NC(C)C(=O)N1C (centres unmarked) [Ex. 8] | 116 | 145 | 150 | – | response vs control in vivo at 4 mg/kg (P-388 cells; P388, ip): 164% |
| CCCCCCCCOc1ccc2cc1Oc1ccc(cc1)CC1C(=O)N(C)C(C2)C(=O)NC(C)C(=O)NC(C)C(=O)N(C)C(Cc2ccc(OC)cc2)C(=O)NC(C)C(=O)N1C (centres unmarked) [Ex. 9] | 136 | 147 | 163 | – | response vs control in vivo at 4 mg/kg (P-388 cells; P388, ip): 152% |
| CCCCCCCCCOc1ccc2cc1Oc1ccc(cc1)CC1C(=O)N(C)C(C2)C(=O)NC(C)C(=O)NC(C)C(=O)N(C)C(Cc2ccc(OC)cc2)C(=O)NC(C)C(=O)N1C (centres unmarked) [Ex. 10] | – | – | – | – | response vs control in vivo at 0.05 mg/kg (P-388 cells; [1]): 112%; response vs control in vivo at 0.5 mg/kg (P-388 cells; [2]): 142%; response vs control in vivo at 2 mg/kg (P-388 cells; [3]): 150%; response vs control in vivo at 4 mg/kg (P-388 cells; ip, Table 6, P388, dose 4 mg/kg, i.p.): 155% |
| COc1ccc(CC2C(=O)NC(C)C(=O)N(C)C3Cc4ccc(cc4)Oc4cc(ccc4OC4CCCCC4)CC(C(=O)NC(C)C(=O)NC(C)C(=O)N2C)N(C)C3=O)cc1 (centres unmarked) [Ex. 16] | 126 | 162 | 164 | – | – |
| CCOC(=O)CCCOc1ccc2cc1Oc1ccc(cc1)CC1C(=O)N(C)C(C2)C(=O)NC(C)C(=O)NC(C)C(=O)N(C)C(Cc2ccc(OC)cc2)C(=O)NC(C)C(=O)N1C (centres unmarked) [Ex. 19(2), ethoxycarbonylpropylether (2) of TPC-A] | 114 | 140 | 142 | – | response vs control in vivo at 4 mg/kg (P-388 cells; P388, ip): 153% |
| COc1ccc(CC2C(=O)NC(C)C(=O)N(C)C3Cc4ccc(cc4)Oc4cc(ccc4OC4CCCCO4)CC(C(=O)NC(C)C(=O)NC(C)C(=O)N2C)N(C)C3=O)cc1 (centres unmarked) [Ex. 20, tetrahydropyranylether of TPC-A] | 138 | 164 | 121 | – | – |
| CCC(=O)Oc1ccc2cc1Oc1ccc(cc1)CC1C(=O)N(C)C(C2)C(=O)NC(C)C(=O)NC(C)C(=O)N(C)C(Cc2ccc(OC)cc2)C(=O)NC(C)C(=O)N1C (centres unmarked) [Ex. 23] | 129 | 145 | 164 | 175 | – |
| CCCC(=O)Oc1ccc2cc1Oc1ccc(cc1)CC1C(=O)N(C)C(C2)C(=O)NC(C)C(=O)NC(C)C(=O)N(C)C(Cc2ccc(OC)cc2)C(=O)NC(C)C(=O)N1C (centres unmarked) [Ex. 24] | 125 | 144 | 156 | 170 | – |
| COc1ccc(CC2C(=O)NC(C)C(=O)N(C)C3Cc4ccc(cc4)Oc4cc(ccc4OC(=O)C(C)C)CC(C(=O)NC(C)C(=O)NC(C)C(=O)N2C)N(C)C3=O)cc1 (centres unmarked) [Ex. 25] | 124 | 151 | 156 | 184 | – |
| CC=CC(=O)Oc1ccc2cc1Oc1ccc(cc1)CC1C(=O)N(C)C(C2)C(=O)NC(C)C(=O)NC(C)C(=O)N(C)C(Cc2ccc(OC)cc2)C(=O)NC(C)C(=O)N1C (centres unmarked) [Ex. 26] | 124 | 148 | 162 | 187 | – |
| CCCCC(=O)Oc1ccc2cc1Oc1ccc(cc1)CC1C(=O)N(C)C(C2)C(=O)NC(C)C(=O)NC(C)C(=O)N(C)C(Cc2ccc(OC)cc2)C(=O)NC(C)C(=O)N1C (centres unmarked) [Ex. 27] | 118 | 150 | 158 | 172 | – |
| CCCCCCC(=O)Oc1ccc2cc1Oc1ccc(cc1)CC1C(=O)N(C)C(C2)C(=O)NC(C)C(=O)NC(C)C(=O)N(C)C(Cc2ccc(OC)cc2)C(=O)NC(C)C(=O)N1C (centres unmarked) [Ex. 28] | 114 | 144 | 150 | – | – |
| CCCCCCCC(=O)Oc1ccc2cc1Oc1ccc(cc1)CC1C(=O)N(C)C(C2)C(=O)NC(C)C(=O)NC(C)C(=O)N(C)C(Cc2ccc(OC)cc2)C(=O)NC(C)C(=O)N1C (centres unmarked) [Ex. 29] | 127 | 147 | 167 | 169 | – |
| CCCCCCCCCC(=O)Oc1ccc2cc1Oc1ccc(cc1)CC1C(=O)N(C)C(C2)C(=O)NC(C)C(=O)NC(C)C(=O)N(C)C(Cc2ccc(OC)cc2)C(=O)NC(C)C(=O)N1C (centres unmarked) [Ex. 30] | 122 | 146 | 152 | 151 | effective against B-16 melanoma (B-16 melanoma): effective against B-16 melanoma; effective against MM2 (MM2): effective |
| COc1ccc(CC2C(=O)NC(C)C(=O)N(C)C3Cc4ccc(cc4)Oc4cc(ccc4OC(=O)c4ccccc4)CC(C(=O)NC(C)C(=O)NC(C)C(=O)N2C)N(C)C3=O)cc1 (centres unmarked) [Ex. 32] | 128 | 186 | 176 | 183 | – |
| COc1ccc(CC2C(=O)NC(C)C(=O)N(C)C3Cc4ccc(cc4)Oc4cc(ccc4OC(=O)CCC(C)C)CC(C(=O)NC(C)C(=O)NC(C)C(=O)N2C)N(C)C3=O)cc1 (centres unmarked) [Ex. 40, 4-methyl valerate] | 112 | 134 | 152 | – | – |
| COc1ccc(CC2C(=O)NC(C)C(=O)N(C)C3Cc4ccc(cc4)Oc4cc(ccc4OC(=O)Cc4ccccc4)CC(C(=O)NC(C)C(=O)NC(C)C(=O)N2C)N(C)C3=O)cc1 (centres unmarked) [Ex. 41] | – | – | – | – | response vs control in vivo at 0.05 mg/kg (P-388 cells; [1]): 118%; response vs control in vivo at 0.5 mg/kg (P-388 cells; [2]): 147%; response vs control in vivo at 2 mg/kg (P-388 cells; [3]): 159% |
| CCC(C)CC(=O)Oc1ccc2cc1Oc1ccc(cc1)CC1C(=O)N(C)C(C2)C(=O)NC(C)C(=O)NC(C)C(=O)N(C)C(Cc2ccc(OC)cc2)C(=O)NC(C)C(=O)N1C (centres unmarked) [Ex. 42] | 115 | 140 | 159 | – | – |
| CCCC(C)C(=O)Oc1ccc2cc1Oc1ccc(cc1)CC1C(=O)N(C)C(C2)C(=O)NC(C)C(=O)NC(C)C(=O)N(C)C(Cc2ccc(OC)cc2)C(=O)NC(C)C(=O)N1C (centres unmarked) [Ex. 43] | 117 | 142 | 154 | – | – |
| CCCC=CC(=O)Oc1ccc2cc1Oc1ccc(cc1)CC1C(=O)N(C)C(C2)C(=O)NC(C)C(=O)NC(C)C(=O)N(C)C(Cc2ccc(OC)cc2)C(=O)NC(C)C(=O)N1C (centres unmarked) [Ex. 44] | 117 | 150 | 165 | – | – |
| CCC=CCC(=O)Oc1ccc2cc1Oc1ccc(cc1)CC1C(=O)N(C)C(C2)C(=O)NC(C)C(=O)NC(C)C(=O)N(C)C(Cc2ccc(OC)cc2)C(=O)NC(C)C(=O)N1C (centres unmarked) [Ex. 45] | – | – | – | – | response vs control in vivo at 0.05 mg/kg (P-388 cells; [1]): 122%; response vs control in vivo at 0.5 mg/kg (P-388 cells; [2]): 145%; response vs control in vivo at 2 mg/kg (P-388 cells; [3]): 162% |
